Measurements as given in patent US8513271B2, “Pyrimidine compounds as delta opioid receptor modulators” (Janssen Pharmaceutica, NV, priority 2009, dated 2013).
Like-named read-outs stand apart in the source and are kept apart here.

What was measured:
delta opioid receptor [1] = target: T1, delta opioid receptor (Mus musculus, UniProt P32300); test: NG108-15, 24-well delta opioid receptor binding assay
T1 construct: NG108-15 cell membranes were purchased from Applied Cell Sciences (Rockville, Md.); host or cells: NG108-15 cell membranes
T1 sequence (P32300 whole entry): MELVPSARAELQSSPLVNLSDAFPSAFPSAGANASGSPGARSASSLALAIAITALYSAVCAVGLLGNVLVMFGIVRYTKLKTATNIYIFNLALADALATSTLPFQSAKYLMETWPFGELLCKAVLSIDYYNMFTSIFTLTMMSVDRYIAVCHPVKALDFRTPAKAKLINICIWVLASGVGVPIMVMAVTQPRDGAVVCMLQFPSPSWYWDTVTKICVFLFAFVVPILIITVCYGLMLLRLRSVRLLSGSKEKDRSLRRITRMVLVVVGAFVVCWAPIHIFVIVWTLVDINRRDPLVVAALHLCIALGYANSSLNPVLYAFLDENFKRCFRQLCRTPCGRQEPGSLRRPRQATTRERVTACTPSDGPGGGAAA

delta opioid receptor [2] = target: T2, delta opioid receptor (Rattus norvegicus, UniProt P33533); test: Rat brain delta opioid receptor binding assay; details: rat forebrain, [3H]naltrindole ligand
T2 construct: the forebrains were homogenized in Tris buffer in a Teflon®-glass homogenizer; from tissue; host or cells: forebrain of male Wistar rats, particulate (membrane) preparation
T2 sequence (P33533 whole entry): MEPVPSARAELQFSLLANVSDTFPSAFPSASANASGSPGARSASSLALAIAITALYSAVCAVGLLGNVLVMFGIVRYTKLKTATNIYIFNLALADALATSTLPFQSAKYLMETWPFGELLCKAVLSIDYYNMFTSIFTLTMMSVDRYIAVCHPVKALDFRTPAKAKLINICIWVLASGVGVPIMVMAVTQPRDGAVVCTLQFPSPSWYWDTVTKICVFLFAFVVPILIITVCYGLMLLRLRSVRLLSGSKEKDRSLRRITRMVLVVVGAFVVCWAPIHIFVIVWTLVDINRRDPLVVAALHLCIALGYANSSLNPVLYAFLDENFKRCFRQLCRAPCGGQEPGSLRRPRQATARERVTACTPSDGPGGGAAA

delta opioid receptor [3] = target: T1, delta opioid receptor; test: [35S]GTPγS binding assay in NG108-15 cell membranes (delta opioid functional assay), 200 nM screen; assay type: biochemical; details: for GTPγS δ-RelEfficacy @200 nM: 200 nM test compound, relative to calculated max of SNC80 dose response curve; for GTPγS δ-RelEfficacy @200 nM / EC50 / GTPγS δ-opioid receptor Rel Efficacy: NG108-15 cell membranes; for GTPγS δ-RelEfficacy @200 nM / EC50: averages if tested more than once; for GTPγS δ-opioid receptor Rel Efficacy: relative efficacy from dose response
[4] = target: hMOR (mu opioid receptor) (Homo sapiens, UniProt P35372); test: [35S]GTPγS binding assays in CHO-hMOR cell membranes (mu opioid functional assay); assay type: biochemical; details: for inhibition at 10 µM: read-out: GTPγS μ-opioid receptor % Inh @10 μM; for GTPγS μ-opioid receptor % Inh @10 μM: inhibition of agonist-stimulated GTPγS binding
Sequence of hMOR (mu opioid receptor) (P35372 whole entry, looked up): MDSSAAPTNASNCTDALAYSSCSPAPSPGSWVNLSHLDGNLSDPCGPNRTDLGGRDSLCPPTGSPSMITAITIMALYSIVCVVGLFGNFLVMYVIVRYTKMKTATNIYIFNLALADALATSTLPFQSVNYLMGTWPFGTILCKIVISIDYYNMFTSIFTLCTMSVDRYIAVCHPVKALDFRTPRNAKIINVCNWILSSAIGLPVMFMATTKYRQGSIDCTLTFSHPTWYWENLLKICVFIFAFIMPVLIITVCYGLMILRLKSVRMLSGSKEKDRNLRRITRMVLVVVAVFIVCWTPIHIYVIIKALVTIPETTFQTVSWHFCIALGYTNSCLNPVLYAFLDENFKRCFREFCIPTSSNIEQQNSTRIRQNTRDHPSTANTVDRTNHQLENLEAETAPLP

mu opioid receptor = target: T3, mu opioid receptor (Rattus norvegicus, UniProt P33535); test: Rat brain mu opioid receptor binding assay; details: rat forebrain, [3H]DAMGO ligand
T3 construct: the forebrains were homogenized in Tris buffer in a Teflon®-glass homogenizer; from tissue; host or cells: forebrain of male Wistar rats, particulate (membrane) preparation
T3 sequence (P33535 whole entry): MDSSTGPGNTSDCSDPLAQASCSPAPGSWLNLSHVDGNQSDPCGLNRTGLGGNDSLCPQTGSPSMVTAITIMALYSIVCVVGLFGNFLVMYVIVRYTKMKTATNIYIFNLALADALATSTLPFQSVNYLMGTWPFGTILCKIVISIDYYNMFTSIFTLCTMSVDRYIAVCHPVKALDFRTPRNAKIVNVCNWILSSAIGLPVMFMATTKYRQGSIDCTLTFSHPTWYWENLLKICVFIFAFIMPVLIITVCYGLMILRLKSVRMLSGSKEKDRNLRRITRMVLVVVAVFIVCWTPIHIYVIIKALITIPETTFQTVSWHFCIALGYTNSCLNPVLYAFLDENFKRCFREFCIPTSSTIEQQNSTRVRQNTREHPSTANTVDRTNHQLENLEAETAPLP

[5] = test system: CFA-induced paw radiant heat hypersensitivity; test: CFA-induced paw radiant heat hypersensitivity; assay type: in vivo, rat; details: Rattus norvegicus, po, 1 h, read-out: maximum % reversal @ time (min), rat, 30 mg/kg p.o., 0.5% HPMC, @ 60 min
[6] = [3H]Naltrindole ligand, NG108-15 cell membranes, read-out: δ-binding NG108 cell membrane Ki
[7] = read-out: δ-binding (Naltrindole ligand) Ki
[8] = GTPγS δ-opioid receptor EC50 (μM)
[9] = read-out: GTPγS δ-opioid receptor EC50
[10] = δ-binding (Naltrindole ligand) Ki
[11] = CHO-hMOR cell membranes, read-out: GTPγS μ-opioid receptor EC50

Row | Ki (delta opioid receptor [1]; [6]) | Compound | GTPγS δ-RelEfficacy @200 nM (delta opioid receptor [3]) | EC50 (delta opioid receptor [3]; [8]) | GTPγS δ-opioid receptor Rel Efficacy (delta opioid receptor [3]) | inhibition at 10 µM [4] | further results
1 |  | COc1ccc(Oc2nc(-c3cncc(C#N)c3)ncc2N2CCNC(C)C2)cc1 (racemic) [Cpd 343] | 0.985 | 0.001 µM | 1.105 | 7.29% | EC50 [4]: 1980 nM
2 | 1.54 nM | COc1ccc(-c2ncc(NC[C@@H]3CCCN3)c(Oc3ccc(O)cc3)n2)cn1 [Cpd 59] |  |  | 1.0063 |  | Ki (mu opioid receptor; read-out: μ-binding Ki): 1610 nM; Ki (delta opioid receptor [2]; [7]): 0.954 nM; EC50 (delta opioid receptor [3]; [9]): 0.433 µM; inhibition at 10 µM (delta opioid receptor [3]; read-out: GTPγS δ-opioid receptor % Inh @10 μM): 1.48%
3 |  | COc1ccc(Oc2nc(-c3cncc(OC)c3)ncc2NC[C@@H]2CCCN2)cc1 [Cpd 68] |  | 0.031 µM | 0.912 | 11.5% | Ki (mu opioid receptor; μ-binding Ki): 465 nM; Ki (delta opioid receptor [2]; [10]): 2 nM
4 |  | COc1ccc(Oc2nc(-c3cncc(C#N)c3)ncc2NC[C@@H]2CCCN2)c(F)c1F [Cpd 101] |  |  |  | 16.6% | Ki (mu opioid receptor; μ-binding Ki): 58 nM; Ki (delta opioid receptor [2]; [10]): 7 nM; EC50 (delta opioid receptor [3]; [9]): 0.103 µM; EC50 [4, 11]: > 10000 nM
5 |  | CCOc1ccc(Oc2nc(-c3cncc(F)c3)ncc2NC[C@@H]2CCCN2)cc1 [Cpd 106] |  | 0.027 µM | 1.019 | 17% | Ki (mu opioid receptor; μ-binding Ki): 42 nM; Ki (delta opioid receptor [2]; [10]): 6 nM; EC50 [4]: > 10000 nM
6 |  | Fc1cncc(-c2ncc(NC[C@@H]3CCCN3)c(Oc3ccc(OCC(F)(F)F)cc3)n2)c1 [Cpd 124] |  |  |  |  | Ki (delta opioid receptor [1]): 0.3 nM; Ki (delta opioid receptor [2]; [7]): 126 nM
7 |  | COc1ccc(Oc2nc(-c3cncc(C#N)c3)ncc2NC[C@@H]2CCCN2)cc1F [Cpd 132] |  | 0.015 µM | 1.042 | 9.4% | Ki (delta opioid receptor [1]): 0.4 nM; Ki (mu opioid receptor; μ-binding Ki): 61 nM; EC50 [4]: 9280 nM
8 |  | COc1ccc(Oc2nc(-c3cncc(C#N)c3)ncc2NC[C@@H]2C[C@@H](F)CN2)cc1 [Cpd 134] |  | 0.004 µM | 1.087 | 1% | Ki (delta opioid receptor [1]): 0.0481 nM; Ki (mu opioid receptor; μ-binding Ki): 27 nM; EC50 [4]: 2780 nM
9 | 5 nM | OCc1ccc(Oc2nc(-c3cccnc3)ncc2NC[C@@H]2CCCN2)cc1 [Cpd 145] |  |  | 1.180 |  | EC50 (delta opioid receptor [3]; [9]): 4.02 µM
10 | 0.4 nM | N#Cc1cncc(-c2ncc(NC[C@@H]3CCCN3)c(Oc3ccc(F)cc3)n2)c1 [Cpd 146] |  |  | 1.197 |  | EC50 (delta opioid receptor [3]; [9]): 0.387 µM
11 |  | Cc1ccc(Oc2nc(-c3cncc(C#N)c3)ncc2NC[C@@H]2CCCN2)cc1 [Cpd 147] |  | 0.051 µM | 1.077 |  | Ki (delta opioid receptor [1]): 0.4 nM; Ki (mu opioid receptor; μ-binding Ki): 438 nM
12 | 1 nM | Cc1ccc(Oc2nc(-c3cncnc3)ncc2NC[C@@H]2CCCN2)cc1 [Cpd 148] | 0.411 |  | 1.052 |  | EC50 (delta opioid receptor [3]; [9]): 0.158 µM
13 | 1 nM | Cc1ccc(Oc2nc(-c3cccnc3)ncc2NC[C@@H]2CCCN2)cc1 [Cpd 149] | 0.403 |  | 1.026 |  | EC50 (delta opioid receptor [3]; [9]): 0.236 µM
14 |  | CSc1ccc(Oc2nc(-c3cncc(C#N)c3)ncc2NC[C@@H]2CCCN2)cc1 [Cpd 150] | 0.801 | 0.033 µM | 1.093 |  | Ki (delta opioid receptor [1]): 0.3 nM
15 | 1 nM | CSc1ccc(Oc2nc(-c3cncnc3)ncc2NC[C@@H]2CCCN2)cc1 [Cpd 151] | 0.704 |  | 1.121 |  | EC50 (delta opioid receptor [3]; [9]): 0.119 µM
16 | 0.4 nM | CSc1ccc(Oc2nc(-c3cccnc3)ncc2NC[C@@H]2CCCN2)cc1 [Cpd 152] | 0.607 |  | 1.083 |  | EC50 (delta opioid receptor [3]; [9]): 0.07 µM
17 | 1 nM | COCc1ccc(Oc2nc(-c3cncc(C#N)c3)ncc2NC[C@@H]2CCCN2)cc1 [Cpd 153] | 0.454 |  | 1.120 |  | EC50 (delta opioid receptor [3]; [9]): 0.193 µM
18 |  | COCc1ccc(Oc2nc(-c3cncnc3)ncc2NC[C@@H]2CCCN2)cc1 [Cpd 154] | 0.164 |  |  |  | Ki (delta opioid receptor [1]): 9 nM
19 |  | COCc1ccc(Oc2nc(-c3cccnc3)ncc2NC[C@@H]2CCCN2)cc1 [Cpd 155] | 0.170 |  |  |  | Ki (delta opioid receptor [1]): 5 nM
20 |  | Oc1ccc(Oc2nc(-c3cncnc3)ncc2NC[C@@H]2CCCN2)cc1 [Cpd 156, 4-{5-[(Pyrrolidin-2-(S)-ylmethyl)-amino]-[2,5]bipyrimidinyl-4-yloxy}-phenol] |  |  |  |  | Ki (delta opioid receptor [1]): 1 nM; EC50 (delta opioid receptor [3]; [9]): 0.177 µM
21 | 40 nM | CCN(CC)C(=O)c1cccc(Oc2nc(-c3cccnc3)ncc2NC[C@@H]2CCCN2)c1 [Cpd 157] | 0.213 |  |  |  | 

Row | Ki (delta opioid receptor [1]; [6]) | Compound | GTPγS δ-RelEfficacy @200 nM (delta opioid receptor [3]) | EC50 (delta opioid receptor [3]; [8]) | GTPγS δ-opioid receptor Rel Efficacy (delta opioid receptor [3]) | inhibition at 10 µM [4] | further results
22 |  | O=C(c1cccc(Oc2nc(-c3cccnc3)ncc2NC[C@@H]2CCCN2)c1)N1CCCC1 [Cpd 166] | 0.169 |  |  |  | Ki (delta opioid receptor [1]): 27 nM
23 | 21 nM | O=C(c1cccc(Oc2nc(-c3cccnc3)ncc2NC[C@@H]2CCCN2)c1)N1CCCCC1 [Cpd 167] | 0.328 |  |  |  | 
24 | 50 nM | O=C(c1cccc(Oc2nc(-c3cccnc3)ncc2NC[C@@H]2CCCN2)c1)N1CCOCC1 [Cpd 168] | 0.300 |  |  |  | 
25 |  | COc1ccc(Oc2nc(-c3cncc(SC)c3)ncc2NC[C@@H]2C[C@@H](F)CN2)cc1 [Cpd 234] | 0.847 | 0.034 µM | 0.987 | 7.29% | 
26 |  | COc1ccc(Oc2nc(-c3cncc(OC)c3)ncc2NC[C@@H]2C[C@@H](F)CN2)cc1 [Cpd 235] | 0.962 | 0.00733 µM | 0.953 |  | inhibition in vivo at 30 mg/kg [5]: 43.7%
27 |  | COc1ccc(Oc2nc(-c3cccnc3)ncc2N[C@H]2CCCNC2)cc1 [Cpd 236] | 1.026 | 0.017 µM | 1.042 | 6.2% | 
28 |  | COc1ccc(Oc2nc(-c3cccnc3)ncc2N[C@H]2CCNC2)cc1 [Cpd 237] |  |  |  |  | GTPγS μ-opioid receptor % Inh @10 μM ([4]; CHO-hMOR cell membranes): 3.524%
29 |  | COc1ccc(Oc2nc(-c3cncc(OC)c3)ncc2N[C@H]2CCCNC2)cc1 [Cpd 245] |  | 0.0127 µM | 1.095 | 4.26% | 
30 |  | COc1ccc(Oc2nc(-c3cncc(SC)c3)ncc2N[C@H]2CCCNC2)cc1 [Cpd 252] |  | 0.025 µM | 1.007 | 2.48% | 
31 |  | COc1ccc(Oc2nc(-c3cncc(SC)c3)ncc2N[C@H]2CCNC2)cc1 [Cpd 255] |  | 0.0464 µM | 0.997 | 17.1% | 
32 |  | COc1ccc(Oc2nc(-c3cncc(OC)c3)ncc2N[C@H]2CCNC2)cc1 [Cpd 256] |  | 0.034 µM | 1.004 | 6.2% | 
33 | 6 nM | COc1ccc(Oc2nc(-c3cncc(C#N)c3)ncc2NC[C@@H](N)CC(C)C)cc1 [Cpd 294] |  |  |  |  | EC50 (delta opioid receptor [3]; [9]): > 10 µM
34 |  | COc1ccc(Oc2nc(-c3cncc(C#N)c3)ncc2NC[C@H]2C[C@H](N)C2)cc1 [Cpd 301] |  | 0.087 µM | 1.085 |  | Ki (delta opioid receptor [1]): 0.5 nM; Ki (mu opioid receptor; μ-binding Ki): 658 nM
35 | 1 nM | COc1ccc(Oc2nc(-c3cncnc3)ncc2NC[C@H]2C[C@H](N)C2)cc1 [Cpd 302] | 0.393 |  |  |  | 
36 |  | COc1ccc(Oc2nc(-c3cncnc3)ncc2NC2CC(N)C2)cc1 (stereo not shown) [Cpd 304] | 0.228 |  |  |  | Ki (delta opioid receptor [1]): 2 nM
37 |  | COc1ccc(Oc2nc(-c3cncc(SC)c3)ncc2N2CCNCC2)cc1 [Cpd 341] |  | 0.041 µM | 0.788 | 0% | 
38 |  | COc1ccc(Oc2nc(-c3cncc(C#N)c3)ncc2N2CCNC[C@@H]2C)cc1 [Cpd 345] | 0.989 | 0.001 µM | 1.089 | 0% | EC50 [4]: 1930 nM
39 |  | COc1ccc(Oc2nc(-c3cncc(SC)c3)ncc2N2CCCNCC2)cc1 [Cpd 347] |  | 0.069 µM | 0.898 | -0.404% | 
40 |  | COc1ccc(Oc2nc(-c3cncc(OC)c3)ncc2N2CC[C@@H](N)C2)cc1 [Cpd 349] |  | 0.082 µM | 0.929 | 0% | 
41 |  | COc1ccc(Oc2nc(-c3cccnc3)ncc2N2CCNC(C)(C)C2)cc1 [Cpd 355] |  |  | 1.002 |  | EC50 (delta opioid receptor [3]; [9]): 0.022 µM; GTPγS μ-opioid receptor % Inh @10 μM ([4]; CHO-hMOR cell membranes): 0.000%; EC50 [4, 11]: 243 nM
42 |  | COc1ccc(Oc2nc(-c3cccnc3)ncc2N2CCN[C@H](C)C2)cc1 [Cpd 357, 4-(4-Methoxy-phenoxy)-5-[3-(R)-methyl-piperazin-1-yl]-2-pyridin-3-yl-pyrimidine] |  | 0.005 µM | 0.929 | 11.5% | EC50 [4]: 1830 nM

Row | Compound | Ki (delta opioid receptor [1]; [6]) | GTPγS δ-RelEfficacy @200 nM (delta opioid receptor [3]) | EC50 (delta opioid receptor [3]; [8]) | GTPγS δ-opioid receptor Rel Efficacy (delta opioid receptor [3]) | inhibition at 10 µM [4] | further results
43 | COc1ccc(Oc2nc(-c3cncnc3)ncc2NCC2COCCN2)cc1 (racemic) [Cpd 278] | 1.64 nM | 0.263 |  |  |  | Ki (delta opioid receptor [2]; [7]): 999 nM
44 | COc1ccc(Oc2nc(-c3cncc(F)c3)ncc2NC[C@H]2COCCN2)cc1 [Cpd 281] | 1 nM | 0.221 |  |  |  | 
